Test results reported in patent publication US7410993B2, “3,6-disubstituted azabicyclo [3.1.0] hexane deriviatives useful as muscarinic receptor antagonists” (Ranbaxy Laboratories Limited, priority 2002, dated 2008).

Target: T1, M2 muscarinic receptor (Rattus norvegicus, UniProt P10980)
T1 construct: Submandibular glands and heart were isolated and placed in ice cold homogenizing buffer; from tissue; host or cells: rat heart membrane homogenate
T1 sequence (P10980 1-466): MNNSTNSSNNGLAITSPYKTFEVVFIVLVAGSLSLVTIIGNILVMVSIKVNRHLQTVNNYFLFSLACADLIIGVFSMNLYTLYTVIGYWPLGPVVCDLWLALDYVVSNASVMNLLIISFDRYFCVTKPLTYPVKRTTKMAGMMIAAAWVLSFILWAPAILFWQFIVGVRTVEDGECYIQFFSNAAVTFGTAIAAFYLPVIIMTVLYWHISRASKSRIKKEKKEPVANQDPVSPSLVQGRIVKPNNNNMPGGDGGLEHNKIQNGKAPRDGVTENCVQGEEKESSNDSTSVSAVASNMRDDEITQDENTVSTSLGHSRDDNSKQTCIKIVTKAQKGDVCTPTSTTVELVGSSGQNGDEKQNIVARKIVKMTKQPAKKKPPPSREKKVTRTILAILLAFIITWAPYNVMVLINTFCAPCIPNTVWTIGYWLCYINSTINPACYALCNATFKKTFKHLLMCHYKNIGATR
Assay: Radioligand binding assay, [3H]-N-methylscopolamine, rat heart membranes
Settings: [3H]NMS binding

| Compound | Ki |
| --- | --- |
| Cc1ccc(O)c(C(CCN2CC3CC3C2C)c2ccccc2)c1 (single isomer, unassigned) [Compound No. 8, 1-(2-methyl-3-azabicyclo[3.1.0]hex-3-yl)-3-(2-hydroxy-5-methylphenyl)-3-phenyl propane] | 34 nM |
| Cc1ccc(O)c(C(CCN2CC3CC3C2C)c2ccccc2)c1 (single isomer, unassigned) [Compound No. 9, 1-(2-methyl-3-azabicyclo[3.1.0]hex-3-yl)-3-(2-hydroxy-5-methylphenyl)-3-phenyl propane] | 42 nM |
| Cc1ccc(O)c(C(CCN2CC3(C)CC3(C)C2)c2ccccc2)c1 (stereo not drawn) [Compound No. 4, 1-(1,5-dimethyl-3-azabicyclo[3.1.0]hex-3-yl)-3-(2-hydroxy-5-methylphenyl)-3-phenyl propane] | > 1000 nM |

The next lines start with the values.

| Ki | Compound |
| --- | --- |
| 105 nM | Cc1ccc(O)c(C(CCN2CC3CC3C2)c2ccccc2)c1 (stereo not drawn) [Compound No. 2, 1-(3-azabicyclo[3.1.0]hex-3-yl)-3-(2-hydroxy-5-methylphenyl)-3-phenyl propane] |
| > 10000 nM | Cc1ccc(OCc2ccccc2)c(C(CCN2CC3(C)CC3(C)C2)c2ccccc2)c1 (stereo not drawn) [Compound No. 3, 1-(1,5-dimethyl-3-azabicyclo[3.1.0]hex-3-yl)-3-(2-benzyloxy-5-methylphenyl)-3-phenyl propane] |
| 221 nM | Cc1ccc(O)c(C(CCN2CC3CC3(C)C2)c2ccccc2)c1 (stereo not drawn) [Compound No. 6, 1-(1-methyl-3-azabicyclo[3.1.0]hex-3-yl)-3-(2-hydroxy-5-methylphenyl)-3-phenyl propane] |
